Data taken from ChEMBL document CHEMBL6153135, “Rational Design of a Potent, Selective, and Metabolically Stable CDK9 Inhibitor to Counteract Osimertinib Resistance through Mcl-1 Suppression and Enhanced BRD4 Co-Targeting” (J Med Chem, 2025).
Active and inactive are the calls of the source. The rule behind the calls is not given here.

Assays:
[1] = AUC (0 to t) in BALB/c mouse at 2 mg/kg, iv; format: ADME, organism-based; details: in vivo
[2] = AUC (0 to infinity) in Sprague-Dawley rat at 20 mg/kg, po; format: ADME, organism-based; details: in vivo
[3] = Anti-proliferative activity against human Osimertinib-resistant HCC827 cells assessed as cell inhibition measured after 72 hrs in presence of 500 nM JQ1 by MTT assay; format: functional, cell-based
[4] = test system: Osimertinib-resistant HCC827 cell; assay: Upregulation of c-Myc level in human Osimertinib-resistant HCC827 cells at 100 to 500 nM incubated for 12 hrs by Western blot analysis; format: functional, cell-based; details: dose 100-500 nM
[5] = Oral bioavailability in BALB/c mouse at 15 mg/kg; format: ADME, organism-based; details: in vivo
[6] = test system: Mus musculus; assay: In vivo inhibition of CDK9 in BALB-c nude mouse xenografted with human Osimertinib-resistant HCC827 cells assessed as decrease in Mcl-1 level in tumor tissue at 5 mg/kg, iv in presence of JQ1 by Western blot analysis; format: functional, organism-based
[7] = Anti-proliferative activity against human Osimertinib-resistant HCC827 cells assessed as cell inhibition measured after 72 hrs in presence of 100 nM JQ1 by MTT assay; format: functional, cell-based
[8] = test system: Osimertinib-resistant NCI-H1975 cell; assay: Induction of apoptosis in human Osimertinib-resistant NCI-H1975 cells assessed as viable cells at 2 uM incubated for 16 hrs by Annexin V-FITC/PI staining based flow cytometry (reference value: 89.4 %); format: functional; details: read-out: Activity
[9] = target: Glycogen synthase kinase-3 beta (Homo sapiens) (UniProt P49841); assay: Inhibition of GSK3beta (unknown origin) at 100 nM preincubated for 10 mins followed by substrate/ATP measured after 60 mins by ADP-Glo assay relative to control; details: time 70.0 min
[10] = Metabolic stability in human liver S9 fraction assessed as clearance measured for 5 to 60 mins by LC-MS/MS analysis; format: ADME, subcellular; details: time 5-60 min, read-out: CLH
[11] = Toxicity in BALB-c nude mouse xenografted with human NCI-H1975 cells assessed as body weight loss at 15 mg/kg, iv administered on every two days; format: organism-based; details: in vivo
[12] = Metabolic stability in dog liver microsomes assessed as clearance measured for 5 to 60 mins by LC-MS/MS analysis; format: ADME, Canis lupus familiaris, Microsome; details: time 5-60 min, read-out: CLH
[13] = C0 in BALB/c mouse at 2 mg/kg, iv; details: in vivo
[14] = Selectivity ratio of IC50 for anti-proliferative activity against human NCI-H1975 cells to IC50 for anti-proliferative activity against human NCI-H1975 cells in presence of JQ1; format: functional
[15] = test system: Osimertinib-resistant NCI-H1975 cell; assay: Induction of apoptosis in human Osimertinib-resistant NCI-H1975 cells assessed as early apoptotic cells at 2 uM incubated for 16 hrs by Annexin V-FITC/PI staining based flow cytometry (reference value: 8.02 %); format: functional
[16] = Metabolic stability in dog liver microsomes assessed as half life measured for 5 to 60 mins by LC-MS/MS analysis; format: ADME, Canis lupus familiaris, Microsome; details: time 5-60 min
[17] = Metabolic stability in human liver microsomes assessed as half life measured for 5 to 60 mins by LC-MS/MS analysis; format: ADME, Microsome; details: time 5-60 min
[18] = Selectivity ratio of IC50 for anti-proliferative activity against human Osimertinib-resistant HCC827 cells to IC50 for anti-proliferative activity against human Osimertinib-resistant HCC827 cells in presence of JQ1; format: functional
[19] = test system: Osimertinib-resistant HCC827 cell; assay: Inhibition of Hippo signaling in human Osimertinib-resistant HCC827 cells in presence of JQ1 by KEGG analysis; format: cell-based
[20] = test system: Osimertinib-resistant HCC827 cell; assay: Downregulation of c-Myc level in human Osimertinib-resistant HCC827 cells in presence of JQ1 by RNA-Seq analysis; format: functional, cell-based
[21] = test system: Lung adenocarcinoma organoid; assay: Anti-tumor activity against multidrug-resistant patient (#2422)-derived human Lung adenocarcinoma organoid assessed as inhibition of cell viability measured after 96 hrs; format: functional, tissue-based; details: Neoplasm
[22] = test system: Osimertinib-resistant NCI-H1975 cell; assay: Induction of apoptosis in human Osimertinib-resistant NCI-H1975 cells assessed as late apoptotic cells at 0.5 uM incubated for 16 hrs by Annexin V-FITC/PI staining based flow cytometry (reference value: 1.42 %); format: functional
[23] = test system: Lung adenocarcinoma organoid; assay: Anti-tumor activity against Osimertinib-resistant patient (#0416)-derived human Lung adenocarcinoma organoid assessed as inhibition of cell viability measured after 96 hrs; format: functional, tissue-based; details: Neoplasm
[24] = Clearance in Sprague-Dawley rat at 2 mg/kg, iv; format: ADME, organism-based; details: in vivo
[25] = Apparent volume of distribution in BALB/c mouse at 15 mg/kg, po; format: ADME, organism-based; details: in vivo
[26] = test system: Mus musculus; assay: In vivo downregulation of c-Myc level in tumor tissue of BALB-c nude mouse xenografted with human Osimertinib-resistant HCC827 cells at 5 mg/kg, iv in presence of JQ1 by Western blot analysis; format: functional, organism-based
[27] = test system: Lung adenocarcinoma organoid; assay: Anti-tumor activity against Osimertinib-resistant patient (#0243)-derived human Lung adenocarcinoma organoid assessed as inhibition of cell viability measured after 96 hrs relative to control; format: functional, Neoplasm
[28] = target: Homeodomain-interacting protein kinase 3 (Homo sapiens) (UniProt Q9H422); assay: Inhibition of HIPK3 (unknown origin) at 100 nM preincubated for 10 mins followed by substrate/ATP measured after 60 mins by ADP-Glo assay relative to control; details: time 70.0 min
[29] = Metabolic stability in monkey liver microsomes assessed as clearance measured for 5 to 60 mins by LC-MS/MS analysis; format: ADME, Macaca mulatta, Microsome; details: rhesus monkey, time 5-60 min, read-out: CLH
[30] = target: Cyclin-dependent kinase 9 (Homo sapiens) (UniProt P50750); assay: Inhibition of CDK9 in human Osimertinib-resistant HCC827 cells assessed as decrease in Mcl-1 level at 100 to 500 nM incubated for 12 hrs by Western blot analysis; format: cell-based; details: Osimertinib-resistant HCC827 cell, dose 100-500 nM
[31] = test system: NCI-H1975; assay: Antitumor activity against human NCI-H1975 cells xenografted in BALB-c nude mouse assessed as reduction in Ki-67 expression at 15 mg/kg, iv administered on every two days by IHC analysis; format: functional, organism-based
[32] = test system: NCI-H596; assay: Anti-proliferative activity against human NCI-H596 cells assessed as cell inhibition measured after 72 hrs by MTT assay; format: functional, cell-based; details: NCI-H596, 72 h
[33] = test system: Lung adenocarcinoma organoid; assay: Anti-tumor activity against Osimertinib-resistant patient (#0243)-derived human Lung adenocarcinoma organoid assessed as inhibition of cell viability measured after 96 hrs; format: functional, tissue-based; details: Neoplasm
[34] = Anti-proliferative activity against human Osimertinib-resistant HCC827 cells assessed as cell inhibition measured after 72 hrs by MTT assay; format: functional, cell-based
[35] = Metabolic stability in human liver microsomes assessed as clearance measured for 5 to 60 mins by LC-MS/MS analysis; format: ADME, Microsome; details: time 5-60 min, read-out: CLH
[36] = Half life in BALB/c mouse at 15 mg/kg, po; format: ADME, organism-based; details: in vivo
[37] = AUC (0 to infinity) in BALB/c mouse at 2 mg/kg, iv; format: ADME, organism-based; details: in vivo
[38] = target: Cyclin-dependent kinase 5/CDK5 activator 1 (Homo sapiens) (UniProt Q00535+Q15078); assay: Inhibition of CDK5/p35NCK (unknown origin) at 100 nM preincubated for 10 mins followed by substrate/ATP measured after 60 mins by ADP-Glo assay relative to control; format: protein-complex assay; details: time 70.0 min
Cyclin-dependent kinase 5/CDK5 activator 1 (Homo sapiens), sequence (Q00535 whole entry): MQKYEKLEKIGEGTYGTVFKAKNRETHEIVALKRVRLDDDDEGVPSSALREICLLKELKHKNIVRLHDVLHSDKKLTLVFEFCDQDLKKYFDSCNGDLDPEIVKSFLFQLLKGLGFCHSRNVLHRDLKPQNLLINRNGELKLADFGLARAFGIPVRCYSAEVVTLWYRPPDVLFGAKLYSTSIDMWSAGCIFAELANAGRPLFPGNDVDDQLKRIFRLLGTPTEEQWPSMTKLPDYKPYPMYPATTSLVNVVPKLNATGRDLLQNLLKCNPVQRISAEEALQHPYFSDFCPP
Cyclin-dependent kinase 5/CDK5 activator 1 (Homo sapiens), sequence (Q15078 99-307 partner limits assumed): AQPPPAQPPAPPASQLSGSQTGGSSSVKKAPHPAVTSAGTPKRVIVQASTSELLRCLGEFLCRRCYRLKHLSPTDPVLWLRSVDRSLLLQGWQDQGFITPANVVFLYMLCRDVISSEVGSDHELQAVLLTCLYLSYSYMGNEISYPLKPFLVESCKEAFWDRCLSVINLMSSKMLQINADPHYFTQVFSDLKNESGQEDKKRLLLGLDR

Cyclin-dependent kinase 9 (Homo sapiens), sequence (P50750 whole entry): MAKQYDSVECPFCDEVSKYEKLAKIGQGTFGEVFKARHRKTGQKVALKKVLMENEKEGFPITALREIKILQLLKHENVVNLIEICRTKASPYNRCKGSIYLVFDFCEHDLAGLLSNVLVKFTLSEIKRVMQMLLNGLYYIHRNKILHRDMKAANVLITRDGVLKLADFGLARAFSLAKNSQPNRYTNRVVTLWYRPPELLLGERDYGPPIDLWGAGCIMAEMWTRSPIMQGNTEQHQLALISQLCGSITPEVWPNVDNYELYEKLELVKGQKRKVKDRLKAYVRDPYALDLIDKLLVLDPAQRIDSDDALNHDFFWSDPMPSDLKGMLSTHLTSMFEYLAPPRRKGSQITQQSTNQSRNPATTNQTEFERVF
Homeodomain-interacting protein kinase 3 (Homo sapiens), sequence (Q9H422 whole entry, looked up): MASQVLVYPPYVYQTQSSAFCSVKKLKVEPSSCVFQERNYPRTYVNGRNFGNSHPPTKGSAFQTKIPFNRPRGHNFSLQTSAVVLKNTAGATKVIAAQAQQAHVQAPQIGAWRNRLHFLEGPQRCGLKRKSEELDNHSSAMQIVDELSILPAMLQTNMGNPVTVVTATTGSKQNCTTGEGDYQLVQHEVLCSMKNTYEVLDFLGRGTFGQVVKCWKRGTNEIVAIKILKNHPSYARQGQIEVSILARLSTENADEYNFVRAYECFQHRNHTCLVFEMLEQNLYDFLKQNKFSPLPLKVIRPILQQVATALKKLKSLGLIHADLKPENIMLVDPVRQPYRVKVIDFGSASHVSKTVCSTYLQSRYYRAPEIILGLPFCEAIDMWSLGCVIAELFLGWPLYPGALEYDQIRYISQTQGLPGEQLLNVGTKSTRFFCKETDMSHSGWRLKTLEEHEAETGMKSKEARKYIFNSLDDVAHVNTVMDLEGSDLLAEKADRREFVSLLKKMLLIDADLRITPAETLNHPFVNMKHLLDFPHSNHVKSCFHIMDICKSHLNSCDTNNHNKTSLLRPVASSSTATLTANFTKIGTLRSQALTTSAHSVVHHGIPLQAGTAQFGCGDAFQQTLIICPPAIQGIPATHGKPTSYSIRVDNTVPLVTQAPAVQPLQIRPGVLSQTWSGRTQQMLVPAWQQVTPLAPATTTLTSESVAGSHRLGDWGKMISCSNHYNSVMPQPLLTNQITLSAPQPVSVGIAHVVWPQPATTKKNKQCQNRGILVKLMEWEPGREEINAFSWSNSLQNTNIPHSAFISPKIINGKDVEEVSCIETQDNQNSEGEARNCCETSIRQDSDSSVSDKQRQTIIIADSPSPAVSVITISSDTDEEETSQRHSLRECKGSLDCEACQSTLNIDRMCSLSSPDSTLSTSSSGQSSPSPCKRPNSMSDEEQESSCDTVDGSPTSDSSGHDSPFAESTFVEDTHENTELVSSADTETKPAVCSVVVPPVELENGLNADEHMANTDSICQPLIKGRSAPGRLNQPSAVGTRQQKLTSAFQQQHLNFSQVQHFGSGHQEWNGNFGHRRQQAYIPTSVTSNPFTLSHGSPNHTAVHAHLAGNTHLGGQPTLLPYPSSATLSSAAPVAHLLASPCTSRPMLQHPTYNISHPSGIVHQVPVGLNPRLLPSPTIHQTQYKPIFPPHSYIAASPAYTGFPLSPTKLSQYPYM
Glycogen synthase kinase-3 beta (Homo sapiens), sequence (P49841 whole entry, looked up): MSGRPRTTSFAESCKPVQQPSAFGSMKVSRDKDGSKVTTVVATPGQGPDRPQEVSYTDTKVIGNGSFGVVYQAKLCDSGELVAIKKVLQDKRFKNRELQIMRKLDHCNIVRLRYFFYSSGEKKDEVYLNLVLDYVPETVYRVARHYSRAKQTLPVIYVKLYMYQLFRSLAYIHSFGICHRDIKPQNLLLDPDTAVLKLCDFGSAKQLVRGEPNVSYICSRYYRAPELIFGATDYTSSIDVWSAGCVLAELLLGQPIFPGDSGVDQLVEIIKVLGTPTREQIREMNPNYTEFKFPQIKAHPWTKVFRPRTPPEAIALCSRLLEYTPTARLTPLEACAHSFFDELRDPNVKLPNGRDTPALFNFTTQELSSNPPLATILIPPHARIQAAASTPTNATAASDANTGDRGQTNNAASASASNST

Which AUC(0-t) [1] does the source give for `CC(=O)N1CCC(NC(=O)c2ccc3cc2OCCCCCCOc2cc(ccc2F)-c2nc(ncc2F)N3)CC1` here?
The AUC(0-t) was 380 ng·h/mL.

And the AUC(0-inf) [2]?
The AUC(0-inf) was 5960 ng·h/mL.

And the IC50 [3]?
The IC50 was 5.2 nM.

What about the Activity [4] of the same molecule?
The Activity was “Active”.

What about the bioavailability [5] of the same molecule?
The bioavailability was 25.8%.

What about the inhibition [6] of the same molecule?
The inhibition was “Active”.

What about the IC50 [7] of the same molecule?
The IC50 was 31.6 nM.

What about the viability at 2 µM [8] of the same molecule?
The viability at 2 µM was 51%.

And the inhibition [9]?
The inhibition was 94.1%.

And the microsomal CLint [10]?
The microsomal CLint was 14.2 µL/min/mg.

And the Activity [11]?
Its Activity is “Non-toxic”.

What about the microsomal CLint [12] of the same molecule?
The microsomal CLint was 18.4 µL/min/mg.

What about the C0 [13] of the same molecule?
Its C0 is 1206.2 ng/mL.

What about the “Ratio IC50” value [14] of the same molecule?
Its value is 10.

And the Activity [15]?
Its Activity is 26%.

What about the half-life [16] of the same molecule?
Its half-life is 1.25 h.

What about the half-life [17] of the same molecule?
The half-life was 2.14 h.

What about the “Ratio IC50” value [18] of the same molecule?
The value was 10.

And the inhibition [19]?
Its inhibition is “Active”.

And the Activity [20]?
Its Activity is “Active”.

What about the IC50 [21] of the same molecule?
The IC50 was 121 nM.

What about the Activity [22] of the same molecule?
The Activity was 10%.

And the IC50 [23]?
The IC50 was less than 10 nM.

What about the clearance [24] of the same molecule?
The clearance was 13.3 mL/min/kg.

What about the Vz [25] of the same molecule?
Its Vz is 109.3 L/kg.

What about the Activity [26] of the same molecule?
Its Activity is “Active”.

What about the Imax [27] of the same molecule?
Its Imax is greater than 98%.

What about the inhibition [28] of the same molecule?
Its inhibition is 82.5%.

What about the microsomal CLint [29] of the same molecule?
The microsomal CLint was 23.5 µL/min/mg.

What about the inhibition [30] of the same molecule?
The inhibition was “Active”.

And the Activity [31]?
Its Activity is “Active”.

What about the IC50 [32] of the same molecule?
The IC50 was 90 nM.

What about the IC50 [33] of the same molecule?
The IC50 was less than 10 nM.

And the IC50 [34]?
Its IC50 is 63.9 nM.

And the microsomal CLint [35]?
The microsomal CLint was 10.8 µL/min/mg.

What about the half-life [36] of the same molecule?
Its half-life is 3.5 h.

What about the AUC(0-inf) [37] of the same molecule?
Its AUC(0-inf) is 396 ng·h/mL.

What about the inhibition [38] of the same molecule?
Its inhibition is 7.24%.
